This note sets out measurements from ChEMBL document CHEMBL3991601, “The target landscape of clinical kinase drugs” (Science, 2017).

For experiment [1], the target named is Serine/threonine-protein kinase SIK3 (Homo sapiens, UniProt Q9Y2K2).
Experiment [2] deals with Dual specificity protein kinase CLK2 (Homo sapiens, UniProt P49760).
The target in experiment [3] is PAS domain-containing serine/threonine-protein kinase (Homo sapiens, UniProt Q96RG2).
Experiment [4] deals with Tyrosine-protein kinase Yes (Homo sapiens, UniProt P07947).
For experiment [5], the target named is T1, Serine/threonine-protein kinase LATS1 (Homo sapiens, UniProt O95835).
T1 sequence (O95835 whole entry): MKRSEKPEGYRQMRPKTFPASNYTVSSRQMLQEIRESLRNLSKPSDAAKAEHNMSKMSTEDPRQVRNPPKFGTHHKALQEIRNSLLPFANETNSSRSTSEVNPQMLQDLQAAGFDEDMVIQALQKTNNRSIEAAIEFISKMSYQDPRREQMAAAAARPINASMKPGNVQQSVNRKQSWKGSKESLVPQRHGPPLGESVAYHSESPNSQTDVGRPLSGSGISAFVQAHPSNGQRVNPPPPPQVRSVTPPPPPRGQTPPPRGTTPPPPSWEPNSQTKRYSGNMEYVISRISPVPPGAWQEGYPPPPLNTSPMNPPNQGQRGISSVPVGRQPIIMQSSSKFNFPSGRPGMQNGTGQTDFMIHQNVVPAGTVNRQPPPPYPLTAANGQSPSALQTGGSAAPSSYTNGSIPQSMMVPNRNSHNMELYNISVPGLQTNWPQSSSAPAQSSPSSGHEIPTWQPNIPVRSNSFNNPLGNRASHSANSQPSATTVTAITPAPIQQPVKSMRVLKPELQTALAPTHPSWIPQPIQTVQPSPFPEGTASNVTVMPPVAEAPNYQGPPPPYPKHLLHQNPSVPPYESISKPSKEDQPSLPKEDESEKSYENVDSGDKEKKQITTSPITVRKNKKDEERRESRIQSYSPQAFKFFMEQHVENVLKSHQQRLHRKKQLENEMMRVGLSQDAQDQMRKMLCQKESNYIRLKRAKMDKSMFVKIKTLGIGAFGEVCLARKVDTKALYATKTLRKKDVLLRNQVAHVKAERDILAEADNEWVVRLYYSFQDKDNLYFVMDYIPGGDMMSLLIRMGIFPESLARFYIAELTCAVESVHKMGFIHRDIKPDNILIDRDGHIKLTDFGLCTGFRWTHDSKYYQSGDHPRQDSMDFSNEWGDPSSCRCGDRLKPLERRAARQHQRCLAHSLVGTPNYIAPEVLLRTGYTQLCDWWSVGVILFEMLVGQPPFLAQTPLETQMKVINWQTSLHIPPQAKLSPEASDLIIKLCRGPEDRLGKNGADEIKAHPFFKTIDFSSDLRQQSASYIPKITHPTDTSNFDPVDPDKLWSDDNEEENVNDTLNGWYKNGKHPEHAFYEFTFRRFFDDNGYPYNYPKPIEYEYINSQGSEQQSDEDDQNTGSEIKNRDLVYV

In experiment [6] the target is T2, Membrane-associated tyrosine- and threonine-specific cdc2-inhibitory kinase (Homo sapiens, UniProt Q99640).
T2 sequence (Q99640 whole entry): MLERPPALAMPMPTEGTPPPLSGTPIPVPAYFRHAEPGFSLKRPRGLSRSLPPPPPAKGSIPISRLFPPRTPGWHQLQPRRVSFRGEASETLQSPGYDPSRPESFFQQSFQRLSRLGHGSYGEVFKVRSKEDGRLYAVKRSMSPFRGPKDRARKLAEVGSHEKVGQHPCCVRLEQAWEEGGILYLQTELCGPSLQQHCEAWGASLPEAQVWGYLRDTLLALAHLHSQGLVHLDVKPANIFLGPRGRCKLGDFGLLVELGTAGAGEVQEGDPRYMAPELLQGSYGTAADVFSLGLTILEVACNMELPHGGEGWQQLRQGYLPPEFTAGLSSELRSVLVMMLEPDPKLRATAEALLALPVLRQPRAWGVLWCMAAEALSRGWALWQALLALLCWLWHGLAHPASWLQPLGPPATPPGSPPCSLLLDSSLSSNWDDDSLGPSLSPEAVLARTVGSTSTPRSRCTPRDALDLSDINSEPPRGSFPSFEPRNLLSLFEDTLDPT

Experiment [7] deals with Tyrosine-protein kinase Fyn (Homo sapiens, UniProt P06241).
Chain of Tyrosine-protein kinase Fyn (P06241 whole entry): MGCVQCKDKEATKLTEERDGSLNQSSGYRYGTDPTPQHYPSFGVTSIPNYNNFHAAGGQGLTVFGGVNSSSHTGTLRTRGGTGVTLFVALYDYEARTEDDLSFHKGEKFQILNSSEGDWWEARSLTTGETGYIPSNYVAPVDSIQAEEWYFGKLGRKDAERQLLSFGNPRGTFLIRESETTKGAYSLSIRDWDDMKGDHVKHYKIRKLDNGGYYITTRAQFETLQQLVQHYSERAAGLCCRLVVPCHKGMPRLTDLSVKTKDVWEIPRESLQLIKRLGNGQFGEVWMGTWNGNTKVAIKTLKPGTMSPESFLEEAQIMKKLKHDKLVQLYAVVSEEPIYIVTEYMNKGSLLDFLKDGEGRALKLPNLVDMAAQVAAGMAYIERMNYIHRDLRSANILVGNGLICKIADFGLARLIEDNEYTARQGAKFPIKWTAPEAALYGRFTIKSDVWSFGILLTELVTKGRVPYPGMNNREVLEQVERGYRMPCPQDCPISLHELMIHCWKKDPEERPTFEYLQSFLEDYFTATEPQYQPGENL
Experiment [8] concerns the target MAP kinase-activated protein kinase 2 (Homo sapiens, UniProt P49137).
Experiment [9] has as its target Interleukin-1 receptor-associated kinase 1 (Homo sapiens, UniProt P51617).
The target in the next experiment is Myosin-10 (Homo sapiens, UniProt P35580).

Each structure is given as a SMILES string. Activity calls are given as the source filed them. Rule as the data show it, for most assays here: actives have a measured Kd and inactives only a lower limit.
Also: in the data inactive means no Kd found up to 30 µM.

Chain of MAP kinase-activated protein kinase 2 (P49137 whole entry): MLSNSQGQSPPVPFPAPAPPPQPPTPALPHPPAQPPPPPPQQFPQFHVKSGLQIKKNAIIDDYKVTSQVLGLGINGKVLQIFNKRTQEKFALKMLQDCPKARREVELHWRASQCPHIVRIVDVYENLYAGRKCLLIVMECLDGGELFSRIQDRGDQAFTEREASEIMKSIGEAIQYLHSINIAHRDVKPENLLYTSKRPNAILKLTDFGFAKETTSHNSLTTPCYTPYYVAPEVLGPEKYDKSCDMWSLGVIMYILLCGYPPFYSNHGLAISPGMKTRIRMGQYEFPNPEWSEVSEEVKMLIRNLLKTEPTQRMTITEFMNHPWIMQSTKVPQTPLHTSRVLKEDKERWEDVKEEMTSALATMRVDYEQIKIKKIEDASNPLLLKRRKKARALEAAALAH
Chain of Serine/threonine-protein kinase SIK3 (Q9Y2K2 whole entry): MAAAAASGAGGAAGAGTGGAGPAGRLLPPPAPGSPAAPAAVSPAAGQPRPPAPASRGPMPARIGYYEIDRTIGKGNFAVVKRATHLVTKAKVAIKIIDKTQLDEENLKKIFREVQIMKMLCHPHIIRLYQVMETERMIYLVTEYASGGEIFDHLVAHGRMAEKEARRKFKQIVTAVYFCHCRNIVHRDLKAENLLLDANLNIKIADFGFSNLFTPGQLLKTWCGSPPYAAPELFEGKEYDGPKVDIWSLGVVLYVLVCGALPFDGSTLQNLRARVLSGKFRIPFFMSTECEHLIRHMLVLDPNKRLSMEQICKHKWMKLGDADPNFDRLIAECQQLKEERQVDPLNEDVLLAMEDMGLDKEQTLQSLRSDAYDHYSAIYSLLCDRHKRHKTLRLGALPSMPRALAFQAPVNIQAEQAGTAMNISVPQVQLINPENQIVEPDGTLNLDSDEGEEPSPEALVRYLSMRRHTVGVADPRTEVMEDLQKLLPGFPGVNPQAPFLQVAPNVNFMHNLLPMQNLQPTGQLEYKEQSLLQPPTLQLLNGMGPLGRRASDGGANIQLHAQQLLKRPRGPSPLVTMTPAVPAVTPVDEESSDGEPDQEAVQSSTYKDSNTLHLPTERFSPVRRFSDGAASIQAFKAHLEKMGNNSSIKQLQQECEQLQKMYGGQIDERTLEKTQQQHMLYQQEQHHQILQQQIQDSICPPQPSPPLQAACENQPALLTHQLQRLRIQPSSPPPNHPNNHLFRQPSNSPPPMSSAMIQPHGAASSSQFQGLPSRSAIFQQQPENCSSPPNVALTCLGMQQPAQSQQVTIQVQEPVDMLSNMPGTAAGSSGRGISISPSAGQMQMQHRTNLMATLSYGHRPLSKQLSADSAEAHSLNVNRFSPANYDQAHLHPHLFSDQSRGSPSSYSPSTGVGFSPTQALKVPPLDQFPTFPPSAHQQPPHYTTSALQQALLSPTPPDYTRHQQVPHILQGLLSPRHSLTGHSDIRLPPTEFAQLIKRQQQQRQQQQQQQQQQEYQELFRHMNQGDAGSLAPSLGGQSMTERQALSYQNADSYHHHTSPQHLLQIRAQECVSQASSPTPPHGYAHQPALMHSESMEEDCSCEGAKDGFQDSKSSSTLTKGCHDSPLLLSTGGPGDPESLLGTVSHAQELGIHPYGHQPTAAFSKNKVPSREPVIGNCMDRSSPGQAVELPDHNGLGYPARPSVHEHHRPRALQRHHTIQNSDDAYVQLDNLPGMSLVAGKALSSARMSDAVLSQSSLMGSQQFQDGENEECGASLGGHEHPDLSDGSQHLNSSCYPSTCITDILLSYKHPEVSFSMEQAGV
Chain of Interleukin-1 receptor-associated kinase 1 (P51617 whole entry): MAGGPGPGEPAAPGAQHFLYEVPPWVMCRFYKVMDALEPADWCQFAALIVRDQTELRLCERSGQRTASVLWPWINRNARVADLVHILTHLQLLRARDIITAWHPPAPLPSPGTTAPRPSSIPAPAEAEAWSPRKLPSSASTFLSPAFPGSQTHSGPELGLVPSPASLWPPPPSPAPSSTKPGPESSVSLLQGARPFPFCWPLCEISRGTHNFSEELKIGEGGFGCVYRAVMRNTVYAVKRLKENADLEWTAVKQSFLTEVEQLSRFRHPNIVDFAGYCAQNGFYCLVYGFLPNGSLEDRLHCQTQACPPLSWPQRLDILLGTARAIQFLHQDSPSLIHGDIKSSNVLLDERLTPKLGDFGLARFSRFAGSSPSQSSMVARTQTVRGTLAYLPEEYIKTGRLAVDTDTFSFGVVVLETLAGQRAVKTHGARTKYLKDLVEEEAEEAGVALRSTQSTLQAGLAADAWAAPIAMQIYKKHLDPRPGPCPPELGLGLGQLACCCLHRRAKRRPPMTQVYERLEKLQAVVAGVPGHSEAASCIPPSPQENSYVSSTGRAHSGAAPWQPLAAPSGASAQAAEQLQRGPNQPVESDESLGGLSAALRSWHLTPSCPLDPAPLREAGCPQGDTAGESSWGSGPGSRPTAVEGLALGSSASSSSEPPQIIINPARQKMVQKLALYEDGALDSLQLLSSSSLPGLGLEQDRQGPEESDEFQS
Chain of PAS domain-containing serine/threonine-protein kinase (Q96RG2 whole entry, the tested form may be a part): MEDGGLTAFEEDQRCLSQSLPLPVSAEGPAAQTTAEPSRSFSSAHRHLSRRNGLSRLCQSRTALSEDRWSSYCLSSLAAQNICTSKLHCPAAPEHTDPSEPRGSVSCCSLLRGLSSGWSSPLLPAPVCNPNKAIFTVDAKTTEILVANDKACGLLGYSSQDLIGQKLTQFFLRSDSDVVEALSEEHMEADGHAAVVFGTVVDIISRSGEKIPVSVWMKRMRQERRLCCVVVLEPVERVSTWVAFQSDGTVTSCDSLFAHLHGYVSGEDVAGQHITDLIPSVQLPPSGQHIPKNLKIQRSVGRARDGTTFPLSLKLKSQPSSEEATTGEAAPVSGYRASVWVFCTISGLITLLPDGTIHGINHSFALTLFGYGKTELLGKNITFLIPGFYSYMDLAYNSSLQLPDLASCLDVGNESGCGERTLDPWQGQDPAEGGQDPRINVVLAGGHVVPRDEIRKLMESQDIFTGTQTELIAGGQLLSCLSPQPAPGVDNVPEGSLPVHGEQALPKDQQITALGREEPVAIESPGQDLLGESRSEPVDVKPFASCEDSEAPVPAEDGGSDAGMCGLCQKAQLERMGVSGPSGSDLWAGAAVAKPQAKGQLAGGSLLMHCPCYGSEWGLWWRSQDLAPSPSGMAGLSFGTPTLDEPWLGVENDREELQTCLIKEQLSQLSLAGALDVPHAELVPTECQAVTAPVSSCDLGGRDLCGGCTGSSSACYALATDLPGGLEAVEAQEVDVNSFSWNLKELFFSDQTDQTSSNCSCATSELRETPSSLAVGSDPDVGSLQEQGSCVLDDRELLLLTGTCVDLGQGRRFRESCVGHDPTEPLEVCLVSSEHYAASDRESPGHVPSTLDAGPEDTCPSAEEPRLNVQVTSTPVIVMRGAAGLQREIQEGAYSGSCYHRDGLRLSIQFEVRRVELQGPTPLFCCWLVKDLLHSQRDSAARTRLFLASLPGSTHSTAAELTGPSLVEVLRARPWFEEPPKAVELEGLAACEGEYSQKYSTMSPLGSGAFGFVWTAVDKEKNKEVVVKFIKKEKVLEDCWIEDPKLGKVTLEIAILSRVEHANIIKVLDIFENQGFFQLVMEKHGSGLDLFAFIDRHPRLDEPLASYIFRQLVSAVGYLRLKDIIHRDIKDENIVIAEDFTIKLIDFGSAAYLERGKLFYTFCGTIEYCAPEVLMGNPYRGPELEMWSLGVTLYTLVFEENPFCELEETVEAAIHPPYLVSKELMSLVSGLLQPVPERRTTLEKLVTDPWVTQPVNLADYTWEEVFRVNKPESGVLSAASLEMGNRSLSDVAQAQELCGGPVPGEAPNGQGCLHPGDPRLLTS
Chain of Dual specificity protein kinase CLK2 (P49760 whole entry, the tested form may be a part): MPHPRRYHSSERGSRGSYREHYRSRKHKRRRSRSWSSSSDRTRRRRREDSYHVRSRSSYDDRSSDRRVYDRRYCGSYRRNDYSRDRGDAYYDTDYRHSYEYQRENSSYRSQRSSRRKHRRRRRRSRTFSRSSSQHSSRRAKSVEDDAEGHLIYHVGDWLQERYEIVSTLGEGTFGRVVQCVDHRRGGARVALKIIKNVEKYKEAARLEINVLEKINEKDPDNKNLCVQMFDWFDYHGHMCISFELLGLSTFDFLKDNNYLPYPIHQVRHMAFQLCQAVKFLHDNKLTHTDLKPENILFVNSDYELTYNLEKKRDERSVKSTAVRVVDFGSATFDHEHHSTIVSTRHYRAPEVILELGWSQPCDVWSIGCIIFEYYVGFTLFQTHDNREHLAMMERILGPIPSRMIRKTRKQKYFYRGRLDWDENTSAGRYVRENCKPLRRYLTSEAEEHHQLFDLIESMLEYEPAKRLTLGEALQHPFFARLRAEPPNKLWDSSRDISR

In the case of `CC(=O)c1cnc2ccc(-c3cc(Cl)c(O)c(Cl)c3)nc2c1N[C@H]1CC[C@H](CN(C)C)CC1`, the Kd in experiment [1] is 0.356 µM (active); in experiment [2], > 30 µM (inactive); in experiment [3], > 30 µM (inactive); in experiment [4], > 30 µM (inactive); in experiment [5], 0.014 µM (active); in experiment [6], > 30 µM (inactive). Also, the Kd in experiment [7] is 0.125 µM (active).
Take `Nc1ncnc2c1c(-c1cccc(OCc3ccccc3)c1)cn2[C@H]1C[C@@H](CN2CCC2)C1` [AEW-541]: the Kd in [1] is > 30 µM (inactive); in experiment [2], > 30 µM (inactive); in [8] it was > 30 µM (inactive); in experiment [9], > 30 µM (inactive); in [4] it was 0.337 µM (active); in experiment [5], 3.88 µM (active). Also, the Kd in experiment [6] and in [7] was > 30 µM (inactive) in each case.
Consider `Cc1nc(NC(=O)N2CCC[C@H]2C(N)=O)sc1-c1ccnc(C(C)(C)C(F)(F)F)c1` [ALPELISIB], for which the Kd in experiment [1], in [2], in experiment [8], in experiment [9], in [4] and in experiment [5] was > 30 µM (inactive) each time. Also, the Kd in experiment [6] and in experiment [7] was > 30 µM (inactive) each time.
`C=CC(=O)Nc1cc2c(Nc3ccc(F)c(Cl)c3)ncnc2cc1C#CC(C)(C)N1CCN(C)CC1` [AV-412 FREE BASE]: the Kd was > 30 µM (inactive) in [1]; > 30 µM (inactive) in experiment [2]; > 30 µM (inactive) in experiment [8]; > 30 µM (inactive) in experiment [9]; > 30 µM (inactive) in experiment [3]; 6.27 µM (active) in experiment [4]. Also, the Kd in [5], in [6] and in experiment [7] was > 30 µM (inactive) each time.
On to `Cn1cnc2c(F)c(Nc3ccc(Br)cc3F)c(C(=O)NOCCO)cc21` [BINIMETINIB], for which the Kd in experiment [1], in experiment [2], in experiment [8], in experiment [9], in experiment [3] and in [4] was > 30 µM (inactive) in each case. The Kd in [5], in experiment [6] and in [7] was > 30 µM (inactive) each time.
For the molecule `CCn1c(C(=O)N(C2CC2)C2CC2)cc2c3c(ncn3C)c(Nc3cc(C)n(C)n3)nc21` [BMS-911543], the Kd in experiment [1], in experiment [2], in [8], in [9], in experiment [4] and in experiment [5] was > 30 µM (inactive) throughout. For the same molecule, the Kd in experiment [6] and in experiment [7] was > 30 µM (inactive) in each case.
`Cc1cc(Nc2ncc(Cl)c(Nc3ccccc3S(=O)(=O)C(C)C)n2)c(OC(C)C)cc1C1CCNCC1` [CERITINIB]: the Kd in experiment [1], in experiment [2], in experiment [8], in experiment [9], in experiment [4] and in [5] was > 30 µM (inactive) each time. The Kd in [6] and in [7] was > 30 µM (inactive) each time.
For the molecule `Cc1nc2cc(-n3ncc(C(=O)c4cc5ccccc5[nH]4)c3N)ccc2[nH]1` [FGFR INHIBITOR DEBIO 1347], the Kd in experiment [1] is > 30 µM (inactive); in [2], > 30 µM (inactive); in experiment [8] it was 0.018 µM; in experiment [9], > 30 µM (inactive); in experiment [4], > 30 µM (inactive); in experiment [5], > 30 µM (inactive). The Kd in experiment [6] and in experiment [7] was > 30 µM (inactive) in each case.
Regarding `Cc1cccc(-c2nn3c(c2-c2ccnc4ccc(C(N)=O)cc24)CCC3)n1` [GALUNISERTIB], the Kd in experiment [1], in experiment [2], in experiment [8], in experiment [9], in experiment [3] and in experiment [4] was > 30 µM (inactive) throughout. For the same molecule, the Kd in experiment [5], in experiment [6] and in [7] was > 30 µM (inactive) throughout.
Turning to `CNC(=O)c1nn(C)c2c1C(C)(C)Cc1cnc(Nc3ccc(N4CCN(C)CC4)cc3)nc1-2` [MILCICLIB], the Kd in experiment [1] is 0.266 µM (active); in experiment [2], > 30 µM (inactive); in experiment [8], > 30 µM (inactive); in experiment [9], 2.06 µM (active); in [3], > 30 µM (inactive); in experiment [4], 3.79 µM (active). The results for the Kd in [5], in [6] and in [7] were 0.681 µM (active), > 30 µM (inactive) and 1.44 µM (active), respectively.
With `Cn1cc(-c2cnc3ccc4ccc(CS(=O)(=O)NCc5ccccn5)cc4c(=O)c3c2)cn1` [MK-8033], the Kd in experiment [1], in experiment [2], in experiment [8], in experiment [9], in experiment [3] and in [4] was > 30 µM (inactive) throughout. For the same molecule, the Kd in [5], in experiment [6] and in [7] was > 30 µM (inactive) in each case.
As for `Cc1nc(Nc2n[nH]c3c2CN(C(=O)N[C@H](CN(C)C)c2ccccc2)C3(C)C)c2sccc2n1` [PF-03758309], the Kd in experiment [1] was > 30 µM (inactive); in experiment [2], > 30 µM (inactive); in [8], > 30 µM (inactive); in [9], > 30 µM (inactive); in experiment [3], > 30 µM (inactive); in experiment [4] it was 5.56 µM (active). The dissociation constant (Kd) in experiment [5] is 0.157 µM (active); in experiment [6], > 30 µM (inactive); in [7], 1.23 µM (active).
As for `O=c1[nH]ccc2cc(OC3CCNCC3)ccc12` [SAR-407899 FREE BASE], the Kd in [1], in experiment [2], in [8], in experiment [9], in experiment [3] and in experiment [4] was > 30 µM (inactive) each time. Further, the Kd in experiment [5], in experiment [6] and in [7] was > 30 µM (inactive) throughout.
In the case of `O=C1NC(=O)[C@@H](c2cn3c4c(cccc24)CCC3)[C@@H]1c1c[nH]c2ccccc12` [TIVANTINIB], the Kd in experiment [1], in experiment [2], in [8], in [9], in experiment [3] and in experiment [4] was > 30 µM (inactive) throughout. Further, the Kd in [5], in experiment [6] and in experiment [7] was > 30 µM (inactive) in each case.
Consider `CN1C/C=C/CCOc2cccc(c2)-c2ccnc(n2)Nc2cccc(c2)C1` [ZOTIRACICLIB], for which the dissociation constant Kd was 1.3 µM in experiment [1]; > 30 µM (inactive) in experiment [8]; > 30 µM (inactive) on Myosin-10; > 30 µM (inactive) in experiment [9]; > 30 µM (inactive) in [3]; > 30 µM (inactive) in [4]. In addition, the Kd in [5], in experiment [6] and in experiment [7] was > 30 µM (inactive) in each case.

By Kd is commonly meant a measure of binding affinity in units of concentration.
